# “Also recorded” adds a separate entry of the source. Read-outs that look alike come from different tables or passages of the source.
# What was measured:
# [1] = tested on: VSV/SARS-CoV-2 spike pseudovirion; assay type: cell-based
# SARS-CoV-2 [2] = assay type: cell-based; conditions: A549-hACE2 and Vero E6 cells, 1 uM, 24 h, preliminary
# [3] = tested on: Mouse Hepatitis Virus (MHV) strain A59; assay: Mouse hepatitis virus (MHV A59) infection of murine bone marrow-derived macrophages, virus load by qRT-PCR; assay type: cell-based; conditions: for MHV virus load in WT mBMDM: WT cells, pretreated and kept on cells
# SARS-CoV-2 [4] = assay: BGBC020 and ACCORD-2 studies taken together; assay type: in vivo, human; conditions: across both BGBC020 and ACCORD-2 studies; SoC 10
# SARS-CoV-2 [5] = assay: SARS-CoV-2 binding on Vero E6 cells (qRT-PCR of bound viral RNA); assay type: cell-based, Green African Monkey; conditions: MOI=5, 15° C., 60 m
# Description: FIG. 9 • Evaluation of SARS-CoV-2 binding on Vero E6 cells. Cells were incubated with virus (MOI=5) and treatments noted at 15° C. for 60 m. Subsequently, some cells were treated with trypsin to remove bound virus. All cells were washed extensively to remove unbound virus and cells were extracted for RNA. Viral load was determined and normalized for the host gene GAPDH. This is one of 3 different experiments yielding similar results.
# In an additional set of studies with Vero E6 cells, it was evaluated whether bemcentinib or PS liposomes blocked VT SARS-CoV-2 binding. Using an MOI of 5, SARS-CoV-2 was incubated at 15° C. for 60 m with Vero E6 cells in the presence of bemcentinib or PS liposomes. Phosphatidylcholine (PC) liposomes were incubated with the cells as a control for PS-mediated viral competition; trypsin was added after virus binding to some cells as a negative control. Cells were placed in Trizol and virus binding was assessed by qRT-PCR detection of viral RNA genomes as compared to the level of a housekeeping gen mRNA, GAPDH. […] Similar studies in Vero E6 cells and other more relevant lung cells will be performed to assess virus internalization following virus binding.
# SARS-CoV-2 [6] = assay type: cell-based; conditions: for sensitivity of SARS-CoV-2 infection to inhibitor: three of the lung tumor lines from John Minna, representative data
# [7] = tested on: VSV/SARS-CoV-2 spike pseudovirions; assay type: cell-based, Green African Monkey
# SARS-CoV-2 [8] = assay type: cell-based
# Ebola virus = conditions: one of only two of sixty compounds; cited from earlier work
# SARS-CoV-2 [9] = assay: Phase 2 clinical trial BGBC020 (India, South Africa), hospitalised COVID-19 patients, bemcentinib plus SoC versus SoC
# SARS-CoV-2 [10] = assay: Phase 2 clinical trial ACCORD-2 (UK), hospitalised COVID-19 patients
# SARS-CoV-2 [11] = conditions: Vero E6 and CaIU3, Dittmar et al; cited from earlier work
# SARS-CoV-2 [12] = assay: Clinical case report: COVID-19 in a lung cancer patient on bemcentinib+erlotinib; assay type: in vivo
# SARS-CoV-2 [13] = assay type: cell-based; conditions: MOI=0.1, 24 h, inhibitor added prior to infection
# MHV = assay: MHV-infected C57BL/6 mice treated by gavage
# SARS-CoV-2 [14] = assay: SARS-CoV-2 salivary viral load (quantitative PCR) in BGBC020 patients; assay type: in vivo
# SARS-CoV-2 [15] = assay type: cell-based, Green African Monkey
# [16] = one high-risk patient on bemcentinib+erlotinib
smiles,measurement,setting,value
CN(C)C(=O)COC(=O)Cc1ccc(OC(=O)c2ccc(NC(=N)N)cc2)cc1 [camostat],hACE2-dependent pseudovirion infection (luminescence),[1],"blocked infection, but to a lesser extent"
"Nc1nc(Nc2ccc3c(c2)CC[C@@H](N2CCCC2)CC3)nn1-c1cc2c(nn1)-c1ccccc1CCC2 [bemcentinib, 1-(6,7-dihydro-5H-benzo[6,7]cyclohepta[1,2-c]pyridazin-3-yl)-N^3-((7-(S)-pyrrolidin-1-yl)-6,7,8,9-tetrahydro-5H-benzo[7]annulene-2-yl)-1H-1,2,4-triazole-3,5-diamine]",SARS-CoV-2 viral transcripts (RNAseq),SARS-CoV-2 [2],dramatically reduced
same,SARS-CoV-2 viral transcripts (RNAseq),SARS-CoV-2 [2]; listed as Bemcentinib,significantly reduced
same,"MHV infection of mBMDM (MHV spike gene, qRT-PCR)","[3]; 1 μM, 24 h, p=0.034 in one-way ANOVA",significantly reducing infection
same,reduction of MHV virus load in ISG15 (KO) and USP18C61A/C61A mBMDM,"[3]; 1 μM, 24 h, trend to lower virus load",not statistically significant; also recorded: did not reach statistical significance
same,inhibitory effect on virus infection,"[3]; BMDM from ISG15-null and USP18C61A/C61A mice, compared with wild type",more variable and in general reduced
same,viral-induced syncytia formation,[3]; MHV-infected BMDM cultures,reduced
same,MHV virus load in WT mBMDM,"[3]; 1 μM, 24 h",significantly reduced MHV infection
same,MHV virus load in WT mBMDM,"[3]; 1 μM, 24 h, listed as Bemcentinib",reduces virus load
same,"MHV infection of mBMDM (MHV spike gene, qRT-PCR)","[3]; increasing concentrations, MOI 0.01, 24 h",inhibitory trend; also recorded: did inhibit MHV infection
same,"MHV infection of mBMDM (MHV spike gene, qRT-PCR)","[3]; increasing concentrations, MOI 0.01, 24 h, listed as Bemcentinib",inhibits MHV infection
same,coronavirus load in cells,"[3]; primary murine BMDM, MHV, 1 μM, 20 h following infection, preliminary",reduces coronavirus load
same,COVID-19 related deaths,SARS-CoV-2 [4],3
same,SARS-CoV-2 binding to Vero E6 cells,SARS-CoV-2 [5],no effect
same,Sensitive to Bemcentinib,SARS-CoV-2 [6]; lung line 820,Yes
same,Sensitive to Bemcentinib,SARS-CoV-2 [6]; lung line CalU3,No
same,Sensitive to Bemcentinib,SARS-CoV-2 [6]; lung line H322,Yes
same,Sensitive to Bemcentinib,SARS-CoV-2 [6]; lung line H1650,Yes
same,Sensitive to Bemcentinib,SARS-CoV-2 [6]; lung line H1819,No
same,Sensitive to Bemcentinib,SARS-CoV-2 [6]; lung line H3255,No
same,Sensitive to Bemcentinib,SARS-CoV-2 [6]; lung line HCC1944,Mixed findings
same,Sensitive to Bemcentinib,SARS-CoV-2 [6]; lung line HCC2302,Yes
same,Sensitive to Bemcentinib,SARS-CoV-2 [6]; lung line HCC4207,Mixed findings
same,Sensitive to Bemcentinib,SARS-CoV-2 [6]; lung line HCC4256,No
same,Sensitive to Bemcentinib,SARS-CoV-2 [6]; lung line HSAEC13,Mixed findings
same,sensitivity of SARS-CoV-2 infection to inhibitor,SARS-CoV-2 [6],sensitive
same,SARS-CoV-2 spike dependent pseudovirion infection of Vero E6 cells,[7],highly effective; also recorded: inhibited pseudovirus infection
same,SARS-CoV-2 infection of CalU3 cells (viral load),SARS-CoV-2 [8],did not inhibit
same,effect against Ebola infection in animal models,Ebola virus,some protective/therapeutic effect
same,QTcF prolongation >501 msec,SARS-CoV-2 [9]; BGBC020,No QTcF prolongation
same,SUSAR,SARS-CoV-2 [9]; BGBC020,No SUSAR
same,"Time to NEWS2 score ≤2, Hazard ratio (95% CI)","SARS-CoV-2 [9]; BGBC020 interim results, secondary endpoint","1.10 (0.70, 1.73)"
same,Mortality,"SARS-CoV-2 [9]; by D29, of 58 patients, SoC 4 of 57",2 patients
same,"worsening by 1, 2 or 3 points on WHO scale","SARS-CoV-2 [9]; days 2, 8, 15 and 29, versus standard of care alone",lower proportion of individual patients experiencing worsening
same,SAE,"SARS-CoV-2 [9]; of 58 patients, SoC 4",5 patients
same,NEWS2 normalisation,"SARS-CoV-2 [9]; versus SoC, interim",favours bemcentinib arm within week 1
same,time to WHO OCS improvement or discharge (primary endpoint),"SARS-CoV-2 [9]; versus SoC, particularly with higher baseline CRP, interim",Favours the bemcentinib arm
same,Laboratory TRAE (haem or chemistry),SARS-CoV-2 [10]; ACCORD-2,no TRAE haem or chemistry
same,QTcF prolongation,SARS-CoV-2 [10]; ACCORD-2,No reported QTcF prolongation
same,Mortality,"SARS-CoV-2 [10]; by D29, of 30 patients, SoC 6 of 30",1 patients
same,SARS-CoV-2 infection in both cell types,SARS-CoV-2 [11],reported to inhibit
same,COVID-19 disease course,SARS-CoV-2 [12]; [16],7 days
same,course of COVID-19,SARS-CoV-2 [12]; [16],very mild
same,transmission to co-habiting partner,SARS-CoV-2 [12]; one patient on bemcentinib+erlotinib,lack of transmission
same,SARS-CoV-2 virus load in Huh7 cells,SARS-CoV-2 [13],inhibited virus infection in a dose dependent manner
same,virus load in liver,"MHV; C57BL/6 mice, 50,000 iu MHV, versus pooled untreated and vehicle only groups, Student's t test",significantly reduced virus load
same,type I interferon responses (IFN related gene expression),"MHV; MHV-infected C57BL/6 mice, day 3, spleen and liver RNA",enhancing type I interferon responses
same,patients with salivary viral load below LLOQ (500 copies/mL),"SARS-CoV-2 [14]; absence of another antiviral, day 8 (8 of 12), SoC 37.5%",approximately 66%
same,patients with salivary viral load below LLOQ (500 copies/mL),"SARS-CoV-2 [14]; absence of another antiviral, day 11 (3 of 3), SoC 60%",100%
same,rate of viral clearance,"SARS-CoV-2 [14]; day 11, all patients, SoC 57%",100%
same,patients with salivary viral load below LLOQ (500 copies/mL),"SARS-CoV-2 [14]; presence of another antiviral (remdesivir or favipiravir), day 8 (9 of 11), SoC 54%",approximately 82%
same,patients with salivary viral load below LLOQ (500 copies/mL),"SARS-CoV-2 [14]; presence of another antiviral (remdesivir or favipiravir), day 11 (9 of 9), SoC 56%",100%
CC(C)C[C@H](NC(=O)[C@H]1O[C@@H]1C(=O)O)C(=O)NCCCCN=C(N)N [E64],WT SARS-CoV-2 infection of Vero E6 cells (viral load),SARS-CoV-2 [15],blocked infection
same,sensitivity of SARS-CoV-2 infection to inhibitor,SARS-CoV-2 [6],sensitive
same,hACE2-dependent pseudovirion infection (luminescence),[1],effectively blocked infection
